The record followed here is US7618984B2, “Sulfonamide compound” (Asahi Kasei Pharma Corporation, priority 2005, dated 2009).

Structures can show the parent of a compound that is named as a salt.

For this test, the system named is rabbit intraocular pressure. Briefly: Rabbit intraocular pressure reduction enhancing action, combination with timolol maleate (Test Example 6-2). The following applies: 0.01 weight % 19-1 compound aqueous solution and/or timolol maleate (Timoptol), 50 μL; difference relative to the control group, 1, 2 and 4 hours. Type of test: in vivo, Japanese white rabbit. The procedure: As a test compound, the 19-1 compound was dissolved in physiological saline, and the solution was neutralized by addition of sodium hydroxide (pH 7.0 to 8.0) to prepare a 0.01 weight % aqueous solution (19-1 compound aqueous solution). As a drug for combination use, timolol maleate (trade name: Timoptol, Santen Pharmaceutical) was used as an adrenergic receptor β blocker, as the marketed formulation as it was.
A Japanese white rabbit having a body weight of about 2 kg was placed in a positioner and naturalized for one week before the experiment. An opthalmologic local anesthesant (Benoxil) was administered to both eyes, and then intraocular pressure before instillation was measured by using a tonometer (Classic 30, Solan). […] The intraocular pressure thereafter was measured for each group 1, 2 and 4 hours after the second administration of the test compound, and the difference of the measured values at each measurement time for the each group and the control group was considered an intraocular pressure reduction value of each group. The largest difference of the intraocular pressure values relative to the control group among those of the measured values of the measurement times was considered the maximum intraocular pressure reduction value (max ΔIOP) of each drug group.

`CC(C)(C)NC[C@H](O)COc1nsnc1N1CCOCC1` [timolol maleate, reference compound]: the “Max ΔIOP (maximum intraocular pressure reduction value), Table 4” value was determined as 1.9 mmHg.
